Results as given in patent US20260166162A1, “CARBON CHAIN SUBSTANCE FOR REGULATING TRANSMEMBRANE TRANSPORT AND FLUIDITY OF CELL MEMBRANES, AND PREPARATION AND USE THEREOF” (priority 2022, published 2026).

Experiments:
Assay type in all cases: cell-based
Epithelial cells = test: Interaction of GFP-labelled complexes with cell membrane of epithelial cells (Example II-52, Table II-30); conditions: GFP-labelled complex, epithelial cells pretreated 4 hours, n=3
Experimental: The fatty acids were combined with water-soluble small molecules to form a complex, which were labeled with GFP fluorescence to detect cell membrane fluorescence. […] After the cells were stably adhered, the water-soluble fatty acid complexes in the following table were added to the cell culture medium. […] The medium with the drug was pipetted and replaced with normal DMEM medium. […] The green fluorescence intensity was analyzed by imageJ (see Table II-30, n=3).

293T cells = test: Cellular phagocytosis of DiD-loaded lipid vesicles (nano-drugs) by 293T cells (Example II-51, Table II-29); conditions: 293T cells pretreated 4 h, DiD lipid vesicles 2 h, n=3, untreated control 226.46 ± 1.26
Hela cells = test: Cell membrane fluidity (Laurdan fluorescence recovery) in Hela cells

## Nc1ncnc2c1ncn2[C@@H]1O[C@H](COP(=O)(O)O)[C@@H](O)[C@H]1O.O=C(O)/C=C/C(=O)O [Adenosine monophosphate-fumaric acid]
Epithelial cells; 0 Hours after medium replaced
  Mean fluorescence intensity: 125.1 ± 7.6
Epithelial cells; 2 Hours after medium replaced
  Mean fluorescence intensity: 120.5 ± 7.4
Epithelial cells; 4 Hours after medium replaced
  Mean fluorescence intensity: 113.3 ± 4.6
Epithelial cells; 8 Hours after medium replaced
  Mean fluorescence intensity: 50.0 ± 2.4
Epithelial cells; 12 Hours after medium replaced
  Mean fluorescence intensity: 35.8 ± 4.6
Epithelial cells; 24 Hours after medium replaced
  Mean fluorescence intensity: 31.3 ± 4.4

## C/C=C/C(=O)O [Crotonic acid]
293T cells; 2 nM
  Fluorescence intensity: 157.30 ± 20.43
293T cells; 5 nM
  Fluorescence intensity: 159.29 ± 0.43
293T cells; 10 nM
  Fluorescence intensity: 94.34 ± 0.43
293T cells; 50 nM
  Fluorescence intensity: 51.34 ± 0.43
293T cells; 100 nM
  Fluorescence intensity: 59.65 ± 1.57
293T cells; 1 uM
  Fluorescence intensity: 458.20 ± 20.41
293T cells; 10 uM
  Fluorescence intensity: 326.69 ± 20.40
293T cells; 50 uM
  Fluorescence intensity: 200.73 ± 10.31
293T cells; 100 uM
  Fluorescence intensity: 218.13 ± 8.22

## CCCCCCCC/C=C\CCCCCCCC(=O)O.OCCO [Ethylene glycol-oleic acid]
293T cells; 2 nM
  Fluorescence intensity: 182.21 ± 18.23
293T cells; 5 nM
  Fluorescence intensity: 121.07 ± 11.26
293T cells; 10 nM
  Fluorescence intensity: 69.12 ± 4.26
293T cells; 50 nM
  Fluorescence intensity: 64.90 ± 1.56
293T cells; 100 nM
  Fluorescence intensity: 44.23 ± 4.26
293T cells; 1 uM
  Fluorescence intensity: 368.97 ± 18.56
293T cells; 50 uM
  Fluorescence intensity: 69.34 ± 5.32
293T cells; 100 uM
  Fluorescence intensity: 58.72 ± 8.75

## CCCCCCCCCCCCCCCC(=O)OCC1OC(O)C(O)C(O)C1O (centres unmarked) [Glucose-C16]
293T cells; 2 nM
  Fluorescence intensity: 134.65 ± 15.22
293T cells; 5 nM
  Fluorescence intensity: 114.00 ± 11.02
293T cells; 10 nM
  Fluorescence intensity: 94.34 ± 4.57
293T cells; 50 nM
  Fluorescence intensity: 96.63 ± 6.54
293T cells; 100 nM
  Fluorescence intensity: 172.88 ± 26.33
293T cells; 1 uM
  Fluorescence intensity: 198.54 ± 8.55
293T cells; 10 uM
  Fluorescence intensity: 170.16 ± 20.33
293T cells; 50 uM
  Fluorescence intensity: 110.15 ± 10.22
293T cells; 100 uM
  Fluorescence intensity: 104.90 ± 4.91

## CCCCCCC=CCCCCCCCC(=O)OCC1OC(O)C(O)C(O)C1O (centres unmarked) [Glucose-c-9-hexadecenoic acid]
Epithelial cells; 0 Hours after medium replaced
  Mean fluorescence intensity: 126.3 ± 2.5
Epithelial cells; 2 Hours after medium replaced
  Mean fluorescence intensity: 113.5 ± 8.2
Epithelial cells; 4 Hours after medium replaced
  Mean fluorescence intensity: 105.5 ± 6.8
Epithelial cells; 8 Hours after medium replaced
  Mean fluorescence intensity: 87.5 ± 6.8
Epithelial cells; 12 Hours after medium replaced
  Mean fluorescence intensity: 64.3 ± 5.1
Epithelial cells; 24 Hours after medium replaced
  Mean fluorescence intensity: 43.5 ± 5.0

## CCC=CCC=CCC=CCCCCCCCC(=O)OCC1OC(O)C(O)C(O)C1O (centres unmarked) [Glucose-linolenic acid]
Hela cells; 2 nM, 20 s
  Fluorescence recovery rate %: 63.78%
Hela cells; 2 nM, 40 s
  Fluorescence recovery rate %: 64.18%
Hela cells; 2 nM, 60 s
  Fluorescence recovery rate %: 65.22%
Hela cells; 2 nM, 80 s
  Fluorescence recovery rate %: 65.16%
Hela cells; 5 nM, 20 s
  Fluorescence recovery rate %: 64.35%
Hela cells; 5 nM, 40 s
  Fluorescence recovery rate %: 64.83%
Hela cells; 5 nM, 60 s
  Fluorescence recovery rate %: 65.17%
Hela cells; 5 nM, 80 s
  Fluorescence recovery rate %: 66.59%
Hela cells; 10 nM, 20 s
  Fluorescence recovery rate %: 64.76%
Hela cells; 10 nM, 40 s
  Fluorescence recovery rate %: 64.87%
Hela cells; 10 nM, 60 s
  Fluorescence recovery rate %: 65.11%
Hela cells; 10 nM, 80 s
  Fluorescence recovery rate %: 66.83%
Hela cells; 50 nM, 20 s
  Fluorescence recovery rate %: 63.24%
Hela cells; 50 nM, 40 s
  Fluorescence recovery rate %: 64.10%
Hela cells; 50 nM, 60 s
  Fluorescence recovery rate %: 64.54%
Hela cells; 50 nM, 80 s
  Fluorescence recovery rate %: 65.23%
Hela cells; 50 μM, 20 s
  Fluorescence recovery rate %: 63.11%
Hela cells; 50 μM, 40 s
  Fluorescence recovery rate %: 70.49%
Hela cells; 50 μM, 60 s
  Fluorescence recovery rate %: 74.88%
Hela cells; 50 μM, 80 s
  Fluorescence recovery rate %: 79.24%
Hela cells; 100 μM, 20 s
  Fluorescence recovery rate %: 65.93%
Hela cells; 100 μM, 40 s
  Fluorescence recovery rate %: 69.87%
Hela cells; 100 μM, 60 s
  Fluorescence recovery rate %: 75.03%
Hela cells; 100 μM, 80 s
  Fluorescence recovery rate %: 80.83%

## CCCCCCCCC/C=C/C(=O)OCC1OC(O)C(O)C(O)C1O (centres unmarked) [Glucose-t-2-dodecenoic acid]
Epithelial cells; 0 Hours after medium replaced
  Mean fluorescence intensity: 129.3 ± 0.6
Epithelial cells; 2 Hours after medium replaced
  Mean fluorescence intensity: 122.0 ± 6.6
Epithelial cells; 4 Hours after medium replaced
  Mean fluorescence intensity: 109.6 ± 5.6
Epithelial cells; 8 Hours after medium replaced
  Mean fluorescence intensity: 63.4 ± 6.0
Epithelial cells; 12 Hours after medium replaced
  Mean fluorescence intensity: 45.7 ± 4.6
Epithelial cells; 24 Hours after medium replaced
  Mean fluorescence intensity: 38.5 ± 8.2
